From patent US20240190950A1, “METHOD OF TREATING DISEASES USING GREMLIN1 ANTAGONISTS” (SHANGHAI JIAO TONG UNIVERSITY, priority 2021, published 2024)

How the values were obtained:
Format in all cases: cell-based, human
[1] = test system: FGFR1/MEK/ERK signaling pathway; test: FGFR1/MEK/ERK phosphorylation in PCa cell lines (immunoblotting)
Method: In order to test whether Gremlin1 promoted the FGFR-MAPK signaling, we first performed analysis of the expression levels of the four FGFRs in CRPC patients. […] We treated LNCaP and PC3 with GREM1 in different concentrations (1 ng/ml, 10 ng/ml, 100 ng/ml) and examined phosphorylation levels of FGFR1, MEK and ERK.
(§1) MAPK signaling can be activated through many membrane receptors besides FGFR. To test whether the activation of MAPK pathway by GREM1 was via FGFR, we constructed a FGFR1 knockout LNCaP subline by the CRISPR/Cas9 method. […] To further test whether the tumor promoting effect of GREM1 was through FGFR, we utilized small molecule inhibitors of FGFR or EGFR.
14E3 was tested to target GREM1 in human PCa.

LNCaP cells = test: GREM1-promoted PCa cell proliferation and sphere formation with FGFR1/MEK inhibitors or BMP4
Source text: as §1

[2] = test system: GREM1 expression in LNCaP cells; test: Regulation of GREM1 expression by AR agonist/antagonist in LNCaP cells (q-PCR, immunoblot, luciferase reporter); settings: R1881 1 nM, enzalutamide 10 μg/ml
Source text: AR plays a central role in PCa. To assess the relationship between Gremlin1 and AR signaling, we performed further IHC staining for Gremlin1 and PSA, a classic downstream target of AR, on sections of CRPC specimens. […] In addition, we detected a significant increase of GREM1 in a castration resistant LNCaP cell line (termed as LNCaP R), which was derived from xenograft LNCaP tumors implanted in castrated mice, compared to a control LNCaP cell line generated from xenografts in intact mice (FIG. 2A). We then asked whether the expression of GREM1 was regulated by AR signaling. We utilized an AR expressing lentivirus or the CRISPR/Cas9 method to achieve AR upregulation (FIG. 2B) or knockout in the LNCaP PCa cell line (FIG. 2D). […] This conclusion was supported by AR agonist R1881 and antagonist Enzalutamide treatment experiments (FIG. 1D, 1E).
Additionally, we carried out a luciferase reporter assay.

CCN1CCN(c2ccc(Nc3cc(N(C)C(=O)Nc4c(Cl)c(OC)cc(OC)c4Cl)ncn3)cc2)CC1 [BGJ398, reference compound]
activation of MAPK/FGFR1 signaling axis by GREM1 in presence of inhibitor ([1]; inhibitor 1 μM, Gremlin1 100 ng/ml, PC3 and LNCaP-resistance cells): attenuated
proliferation promoting role of GREM1 (LNCaP cells): significantly compromised
sphere-formation promoting role of GREM1 (LNCaP cells): significantly compromised

C[C@]1(O)CC[C@H]2[C@@H]3CCC4=CC(=O)CCC4=C3C=C[C@@]21C [R1881]
GREM1 mRNA transcription [2]: downregulated
GREM1 promoter driven luciferase activity [2]: greatly inhibited
Gremlin1 protein level [2]: downregulated

FGF1: known FGFR1 ligand used as a positive control
time of highest MAPK signaling activation ([1]; FGF 20 ng/ml, PC3 and LNCaP cells, quickly diminished afterwards): 10 min

CNC(=O)c1ccc(N2C(=S)N(c3ccc(C#N)c(C(F)(F)F)c3)C(=O)C2(C)C)cc1F [enzalutamide]
GREM1 mRNA transcription [2]: significantly increased
GREM1 promoter driven luciferase activity [2]: enhanced
Gremlin1 protein level [2]: significantly increased
